The values below come from patent US20230255966A1, “A COMBINATION OF A CBP/P300 BROMODOMAIN INHIBITOR AND AN EGFR INHIBITOR FOR USE IN TREATING EGFR-MUTANT NSCLC” (TOLREMO THERAPEUTICS AG, priority 2020, published 2023).

One assay addresses T1, ATAD2A (Homo sapiens, UniProt Q6PL18).
T1 construct: T7 phage strains displaying bromodomains were grown in parallel; purchased DiscoverX; host or cells: T7 phage in E. coli host derived from BL21
The assay is described as follows: BROMOscan BromoKdMAX. It counts as binding. As for the experimental part: (§1) A BromoKdMAX was performed at DiscoverX.
(§2) The assay principle is the following: BROMOscan™ is a novel industry leading platform for identifying small molecule bromodomain inhibitors. Based on proven KINOMEscan™ technology, BRO-MOscan™ employs a proprietary ligand binding site-directed competition assay to quantitatively measure interactions between test compounds and bromodomains. This robust and reliable assay panel is suitable for high throughput screening and delivers quantitative ligand binding data to facilitate the identification and optimization of potent and selective small molecule bromodomain inhibitors.
(§3) The assay was conducted as follows: For the Bromodomain assays, T7 phage strains displaying bromodomains were grown in parallel in 24-well blocks in an E. coli host derived from the BL21 strain. E. coli were grown to log-phase and infected with T7 phage from a frozen stock (multiplicity of infection=0.4) and incubated with shaking at 32° C. until lysis (90-150 minutes). The lysates were centrifuged (5,000×g) and filtered (0.2 μm) to remove cell debris. […] The liganded beads were blocked with excess biotin and washed with blocking buffer (SeaBlock (Pierce), 1% BSA, 0.05% Tween 20, 1 mM DTT) to remove unbound ligand and to reduce non-specific phage binding. […] Test compounds were prepared as 1000× stocks in 100% DMSO. Kds were determined using an 11-point 3-fold compound dilution series with one DMSO control point. […] The compounds were then diluted directly into the assays such that the final concentration of DMSO was 0.09%. All reactions performed in polypropylene 384-well plates. Each was a final volume of 0.02 ml. […] The bromodomain concentration in the eluates was measured by qPCR.

The next assay deals with T2, ATAD2B (Homo sapiens, UniProt Q9ULI0).
T2 construct: T7 phage strains displaying bromodomains were grown in parallel; purchased DiscoverX; host or cells: T7 phage in E. coli host derived from BL21
Nature of the assay: BROMOscan BromoKdMAX. It counts as binding. How it is done: as §1, §2, §3

A further assay has as its target T3, BAZ2A (Homo sapiens, UniProt Q9UIF9).
T3 construct: T7 phage strains displaying bromodomains were grown in parallel; purchased DiscoverX; host or cells: T7 phage in E. coli host derived from BL21
Nature of the assay: BROMOscan BromoKdMAX. It counts as binding. As for the experimental part:
as §1, §2, §3

The target in the next assay is T4, BAZ2B (Homo sapiens, UniProt Q9UIF8).
T4 construct: T7 phage strains displaying bromodomains were grown in parallel; purchased DiscoverX; host or cells: T7 phage in E. coli host derived from BL21
The assay is described as follows: BROMOscan BromoKdMAX. The format is binding. As for the experimental part:
as §1, §2, §3

The target of another assay is T5, BRD1 (Homo sapiens, UniProt O95696).
T5 construct: T7 phage strains displaying bromodomains were grown in parallel; purchased DiscoverX; host or cells: T7 phage in E. coli host derived from BL21
The assay is described as follows: BROMOscan BromoKdMAX. It counts as binding. How it is done:
as §1, §2, §3

The target in another assay is T6, BRPF3 (Homo sapiens, UniProt Q9ULD4).
T6 construct: T7 phage strains displaying bromodomains were grown in parallel; purchased DiscoverX; host or cells: T7 phage in E. coli host derived from BL21
Nature of the assay: BROMOscan BromoKdMAX. It counts as binding. How it is done: as §1, §2, §3

The target of a further assay is T7, FALZ (Homo sapiens, UniProt Q12830).
T7 construct: T7 phage strains displaying bromodomains were grown in parallel; purchased DiscoverX (BROMOscan / BromoKdMAX service); host or cells: T7 phage in E. coli host derived from BL21
The assay is described as follows: BROMOscan BromoKdMAX. It counts as binding. How it is done:
as §1, §2, §3

The target of another assay is T8, GCN5L2 (Homo sapiens, UniProt Q92830).
T8 construct: T7 phage strains displaying bromodomains were grown in parallel; purchased DiscoverX (BROMOscan / BromoKdMAX service); host or cells: T7 phage in E. coli host derived from BL21
Nature of the assay: BROMOscan BromoKdMAX. The format is binding. As for the experimental part:
as §1, §2, §3

In another assay the target is T9, PBRM1(2) (Homo sapiens, UniProt Q86U86).
T9 construct: T7 phage strains displaying bromodomains were grown in parallel; purchased DiscoverX (BROMOscan / BromoKdMAX service); host or cells: T7 phage in E. coli host derived from BL21
The assay is described as follows: BROMOscan BromoKdMAX. The format is binding. How it is done: as §1, §2, §3

In the next assay the target is T10, PBRM1(5) (Homo sapiens, UniProt Q86U86).
T10 construct: T7 phage strains displaying bromodomains were grown in parallel; purchased DiscoverX (BROMOscan / BromoKdMAX service); host or cells: T7 phage in E. coli host derived from BL21
The assay is described as follows: BROMOscan BromoKdMAX. The format is binding. As for the experimental part: as §1, §2, §3

The target in the next assay is T11, SMARCA2 (Homo sapiens, UniProt P51531).
T11 construct: T7 phage strains displaying bromodomains were grown in parallel; purchased DiscoverX (BROMOscan / BromoKdMAX service); host or cells: T7 phage in E. coli host derived from BL21
The assay is described as follows: BROMOscan BromoKdMAX. It counts as binding. How it is done: as §1, §2, §3

Another assay deals with T12, SMARCA4 (Homo sapiens, UniProt P51532).
T12 construct: T7 phage strains displaying bromodomains were grown in parallel; purchased DiscoverX (BROMOscan / BromoKdMAX service); host or cells: T7 phage in E. coli host derived from BL21
Nature of the assay: BROMOscan BromoKdMAX. The format is binding. As for the experimental part:
as §1, §2, §3

The target in the next assay is T13, TRIM33(PHD, Bromo.) (Homo sapiens, UniProt Q9UPN9).
T13 construct: TRIM33(PHD, Bromo.)
The assay is described as follows: BROMOscan BromoKdMAX. It counts as binding. How it is done:
as §1, §2, §3

Assay [1] relates to HCC827 cells. Nature of the assay: Label-free determination of cell proliferation (CELIGO). The format is cell-based. To be noted: HCC827, combined with 100 nM osimertinib, 21 days (FIG. 9).
Another assay relates to NCI-H1975 xenografts. Nature of the assay: NCI-H1975 xenograft tumor growth. It counts as in vivo, NMRI-Nude mice. How it is done: Tumor volume was measured using a manual caliper two to three times a week. The tumor volume was calculated using the formula: lager tumor diameter x square of the smaller tumor diameter divided by 2. Based on a linear fit of the mean tumor volumes the slopes of the curves were compared by regression analysis (two-tailed).
The response was determined by comparing tumor volume change at time t to its baseline: % tumor volume change=ΔVolt=100%×((Vt−Vinitial)/Vinitial). The Best Response was the minimum value of ΔVolt for t≥10 d. For each time t, the average of ΔVolt from t=0 to t was also calculated. The BestAvgResponse is defined as the minimum value of this average for t≥10 d. This metric captures a combination of speed, strength and durability of response into a single value. […] Mice that were sacrificed because of an adverse event before they had completed 14 d on trial were removed from the data set.
The response was determined by comparing tumor volume change at time t to its baseline: % tumor volume change=ΔVolt=100%×((Vt−Vinitial)/Vinitial). The Best Response was the minimum value of ΔVolt for t≥6 d. For each time t, the average of ΔVolt from t=0 to t was also calculated. The BestAvgResponse is defined as the minimum value of this average for t≥10 d. This metric captures a combination of speed, strength and durability of response into a single value. […] Mice that were sacrificed because of an adverse event before they had completed 14 d on trial were removed from the data set.

A further assay has as its target T14, CBP bromodomain (Homo sapiens, UniProt Q92793).
T14 construct: purchased Cayman chemicals 600850
Nature of the assay: CBP bromodomain binding assay (TR-FRET). As to conditions: class symbols. How it is done:
Compounds solutions of 10 mM in DMSO were pre-diluted in DSMO to 25× stock solutions in DMSO. These were then diluted down to 4× in Assay buffer. A dilution series in Assay buffer was performed keeping the DMSO concentration stable. 5 μl compound in assay buffer was transferred into the assay plate (provided by assay kit) and the TR-FRET assay Cayman chemicals; 600850) was performed using the manufactor's instructions. […] The TR-FRET ratio was calculated by dividing 670 nm emission by 620 nm emission.
On the technique in general: TR-FRET usually uses a lanthanide donor and a delayed reading to cut background.

The subject of assay [2] is HCC827 cells. Nature of the assay: Cell counting by nuclear fluorescent staining (Hoechst33342). It counts as cell-based. As for the experimental part:
Several plates were seeded, as for each time point of cell counting one plate was fixed and stained for analysis. […] Cell cultivation was continued until time of fixation and analysis for each plate. For extended time-points, medium and drugs were replenished twice weekly.
At the given time plates were washed 3 times with PBS and cells fixed with 80 μl 4% PFA for 10 min, RT. After 3 wash steps with PBS cells were stained with 10 μg/ml Hoechst33342 (Thermo Scientific H12492) in 100 μl PBS for 2 h, RT, dark. After 3× PBS washing-steps, Hoechst33342 signals were acquired on in an automated imaging mode using a Zeiss Apotome with motorized X/Y stage and a 5× objective. Image analysis and determination of Hoechst33342 spots (nuclei) was done using ImageJ. Number of nuclei was plotted as function of time using GraphPad Prism.

Where [3] appears, read: 2 mg/kg osimertinib in combination with 90 mg/kg Compound C.

T12 sequence (P51532 1453-1564 limits assumed): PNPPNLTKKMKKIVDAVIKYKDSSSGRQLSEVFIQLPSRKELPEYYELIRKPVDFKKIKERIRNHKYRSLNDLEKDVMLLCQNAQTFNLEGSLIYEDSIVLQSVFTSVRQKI
T9 sequence (Q86U86 177-287 limits assumed): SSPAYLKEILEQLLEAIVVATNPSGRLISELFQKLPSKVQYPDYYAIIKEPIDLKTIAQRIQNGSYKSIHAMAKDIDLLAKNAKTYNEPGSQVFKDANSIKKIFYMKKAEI
T8 sequence (Q92830 728-832 limits assumed): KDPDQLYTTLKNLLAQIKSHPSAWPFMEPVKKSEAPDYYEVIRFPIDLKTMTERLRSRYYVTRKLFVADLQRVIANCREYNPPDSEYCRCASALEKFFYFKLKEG
T13 sequence (Q9UPN9 whole entry): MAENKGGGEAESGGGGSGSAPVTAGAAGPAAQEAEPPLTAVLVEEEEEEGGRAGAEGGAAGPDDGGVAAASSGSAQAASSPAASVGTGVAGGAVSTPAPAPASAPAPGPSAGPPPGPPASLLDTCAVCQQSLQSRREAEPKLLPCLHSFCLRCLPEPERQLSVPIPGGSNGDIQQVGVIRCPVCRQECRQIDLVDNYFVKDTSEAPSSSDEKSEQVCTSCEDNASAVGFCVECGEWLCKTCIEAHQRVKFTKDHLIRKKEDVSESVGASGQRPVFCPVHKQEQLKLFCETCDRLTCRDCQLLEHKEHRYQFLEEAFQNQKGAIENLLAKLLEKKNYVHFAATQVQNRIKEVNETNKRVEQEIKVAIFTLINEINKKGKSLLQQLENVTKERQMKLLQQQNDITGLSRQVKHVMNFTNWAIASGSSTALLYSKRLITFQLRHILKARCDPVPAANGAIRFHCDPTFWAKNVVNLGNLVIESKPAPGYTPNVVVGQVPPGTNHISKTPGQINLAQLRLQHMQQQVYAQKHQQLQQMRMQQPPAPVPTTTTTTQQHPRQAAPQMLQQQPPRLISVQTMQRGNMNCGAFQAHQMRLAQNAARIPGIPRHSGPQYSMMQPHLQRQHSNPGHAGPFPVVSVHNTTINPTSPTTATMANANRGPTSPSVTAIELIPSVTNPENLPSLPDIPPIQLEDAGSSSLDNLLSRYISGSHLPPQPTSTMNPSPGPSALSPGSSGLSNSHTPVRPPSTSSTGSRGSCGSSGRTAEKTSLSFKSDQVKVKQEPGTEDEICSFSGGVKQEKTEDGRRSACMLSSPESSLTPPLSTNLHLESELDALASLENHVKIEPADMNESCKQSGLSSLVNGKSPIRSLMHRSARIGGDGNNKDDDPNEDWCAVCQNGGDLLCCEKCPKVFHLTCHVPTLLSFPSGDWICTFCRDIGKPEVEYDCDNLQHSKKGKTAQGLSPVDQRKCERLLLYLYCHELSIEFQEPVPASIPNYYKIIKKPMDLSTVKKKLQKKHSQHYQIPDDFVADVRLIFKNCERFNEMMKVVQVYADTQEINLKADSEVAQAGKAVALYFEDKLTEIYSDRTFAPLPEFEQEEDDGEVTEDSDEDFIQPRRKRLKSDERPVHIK
T3 sequence (Q9UIF9 1793-1897 limits assumed): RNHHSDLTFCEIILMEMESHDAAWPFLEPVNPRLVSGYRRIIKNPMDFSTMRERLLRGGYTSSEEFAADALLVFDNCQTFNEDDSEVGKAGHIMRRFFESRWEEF
T6 sequence (Q9ULD4 589-693 limits assumed): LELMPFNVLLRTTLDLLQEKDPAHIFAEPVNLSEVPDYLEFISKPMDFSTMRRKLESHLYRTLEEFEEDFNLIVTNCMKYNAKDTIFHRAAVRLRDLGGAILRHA
T4 sequence (Q9UIF8 2060-2164 limits assumed): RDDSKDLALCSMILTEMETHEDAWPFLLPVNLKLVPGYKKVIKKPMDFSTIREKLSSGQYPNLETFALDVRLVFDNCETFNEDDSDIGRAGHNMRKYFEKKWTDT
T5 sequence (O95696 562-666 limits assumed): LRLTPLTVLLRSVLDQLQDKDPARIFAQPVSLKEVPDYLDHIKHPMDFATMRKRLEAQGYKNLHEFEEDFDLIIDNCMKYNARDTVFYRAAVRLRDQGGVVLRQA
T2 sequence (Q9ULI0 951-1066 limits assumed): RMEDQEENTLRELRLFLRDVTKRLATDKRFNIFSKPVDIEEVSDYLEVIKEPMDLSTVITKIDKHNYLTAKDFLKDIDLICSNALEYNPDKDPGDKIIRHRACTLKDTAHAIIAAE
T14 sequence (Q92793 1085-1192 limits assumed): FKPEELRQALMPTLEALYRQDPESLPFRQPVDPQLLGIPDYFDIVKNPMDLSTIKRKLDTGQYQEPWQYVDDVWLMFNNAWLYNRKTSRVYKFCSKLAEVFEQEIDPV
T11 sequence (P51531 1378-1506 limits assumed): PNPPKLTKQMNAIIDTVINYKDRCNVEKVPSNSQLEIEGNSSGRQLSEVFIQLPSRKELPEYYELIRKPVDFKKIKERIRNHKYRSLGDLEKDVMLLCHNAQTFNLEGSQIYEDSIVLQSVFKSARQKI
T1 sequence (Q6PL18 980-1092 limits assumed): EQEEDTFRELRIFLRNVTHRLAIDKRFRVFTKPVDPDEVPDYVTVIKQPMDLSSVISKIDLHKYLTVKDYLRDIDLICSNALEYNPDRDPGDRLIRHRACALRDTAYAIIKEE
T10 sequence (Q86U86 653-763 limits assumed): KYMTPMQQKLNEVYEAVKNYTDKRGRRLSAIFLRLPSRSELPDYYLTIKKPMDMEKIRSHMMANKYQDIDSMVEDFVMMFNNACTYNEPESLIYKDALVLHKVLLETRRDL

Take `CC(=O)N1C[C@H](c2nc(Nc3cccc(-c4cn(C)nn4)c3)cc(-c3cnccn3)n2)CC[C@@H]1C` [Compound C, 1-((2S,5R)-2-methyl-5-(4-((3-(1-methyl-1H-1,2,3-triazol-4-yl)phenyl)amino)-6-(pyrazin-2-yl)pyrimidin-2-yl)piperidin-1-yl)ethan-1-one]: the Kd at ATAD2A, on ATAD2B, at BAZ2A, on BAZ2B, on BRD1 and on BRPF3 was greater than 10 µM each time. In addition, the Kd on FALZ, on GCN5L2, at PBRM1(2), at PBRM1(5), at SMARCA2 and on SMARCA4 was greater than 10 µM each time. The equilibrium dissociation constant (Kd) (in general, the free concentration of one partner at which half of the binding sites on the other are occupied at equilibrium, for simple one-to-one binding) at TRIM33(PHD, Bromo.) was greater than 10 µM. For the same molecule, the “Development of drug resistance / re-growth” value in the assay on HCC827 cells [1] is recorded as “prevent the development of drug resistance”. In the assay with NCI-H1975 xenografts (setting [3]), the Response to therapy result is reported as “response to therapy is significantly increased”. In the assay with NCI-H1975 xenografts (setting [3]), the “Slope of linear regression fit of mean tumor volumes over time” value was −7.4. Besides, the “Tumor growth (slopes of mean tumor volume curves) versus osimertinib group” value with NCI-H1975 xenografts (2 mg/kg osimertinib in combination with 90 mg/kg Compound C, daily, orally) is “significant difference”. Moreover, in the assay with NCI-H1975 xenografts (90 mg/kg Compound C single agent, daily, orally), the “Tumor growth (slopes of mean tumor volume curves) versus vehicle” value is recorded as “No significant difference”.

Turning to `CC(=O)N1C[C@H](c2nc(Nc3ccnc(C)c3)cc(-c3cccnc3)n2)CC[C@@H]1C` [Compound 00071, 1-((2S,5R)-2-methyl-5-(4-((2-methylpyridin-4-yl)amino)-6-(pyridin-3-yl)pyrimidin-2-yl)piperidin-1-yl)ethan-1-one], the EC50 (as a rule, the midpoint of the concentration-response curve) on CBP bromodomain was less than 0.2 µM. For the same molecule, the “Effect on cell proliferation as single agent” value in the assay on HCC827 cells [2] (absence of EGFR inhibitor (FIG. 3 left)) is recorded as “absence of an anti-proliferative effect”. The “Anti-proliferative activity / re-growth in presence of Gefitinib” value in the assay on HCC827 cells [2] (in presence of 300 nM Gefitinib (FIG. 3)) was “potentiate the effect of the EGFR inhibitor”.
